Measurements taken from patent publication US20210221784A1, “COMPOUNDS AND COMPOSITIONS FOR THE TREATMENT OF PAIN” (Université de Strasbourg, priority 2018, published 2021).

Tests used:
[1] = molecular target: T1, human NPFFR1 (hNPFFR1) receptor (Homo sapiens, UniProt Q9GZQ6); assay: Human NPFFR1 evaluation using BRET biosensors in HEK-293 T cells; type: cell-based; conditions: hNPFFR1 in HEK-293 T cells, stimulated by EC80 RFRP-3, read-out: IC50 of antagonist activity
T1 construct: expressed in transfected cells; host or cells: HEK-293 T cells, transient co-transfection
T1 sequence (Q9GZQ6 whole entry): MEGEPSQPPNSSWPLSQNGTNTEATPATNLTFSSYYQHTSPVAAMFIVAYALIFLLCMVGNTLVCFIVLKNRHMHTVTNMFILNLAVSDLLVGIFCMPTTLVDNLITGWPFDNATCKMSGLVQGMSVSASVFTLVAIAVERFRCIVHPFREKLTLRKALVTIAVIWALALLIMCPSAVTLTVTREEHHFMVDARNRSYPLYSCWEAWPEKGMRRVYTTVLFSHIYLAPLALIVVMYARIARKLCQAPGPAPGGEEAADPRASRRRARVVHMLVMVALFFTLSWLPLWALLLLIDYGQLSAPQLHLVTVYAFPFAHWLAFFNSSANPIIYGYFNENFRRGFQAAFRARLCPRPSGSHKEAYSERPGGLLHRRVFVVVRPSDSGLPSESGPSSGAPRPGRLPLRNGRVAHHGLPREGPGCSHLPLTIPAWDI
Procedure: Compounds of the present invention were tested successively for their agonist and antagonist activities on human NPFFR1 (hNPFFR1) receptor transiently over-expressed in HEK-293 T cells. Compounds exert agonist activity if, by themselves in absence of neuropeptide RFRP-3 (also named NPVF) they activate hNPFFR1; and they exert antagonist activity if they decrease the action of RFRP-3 on the receptor. The assay used to measure compound activity is based on BRET (Bioluminescence Resonance Energy Transfer) biosensors and is designed to monitor the plasma membrane translocation of protein that interacts with specific Ga subunit. The specific effector (luciferase tagged: BRET donor) recruited at the membrane will be in close proximity to a plasma membrane anchor (GFP tagged: BRET acceptor) to induce a BRET signal (Ramdan et al, 2006, Chapter 5, Current Protocols in Neuroscience).
HEK-293 T cells are maintained in Dulbecco's Modified Eagle's Medium supplemented with 10% Foetal Calf Serum, 1% Penicillin/Streptomycin at 37° C./5% CO2. Cells are co-transfected using polyethylenimine (25 kDa linear) with four DNA plasmids encoding; hNPFFR1, GαoB, a Gi family specific intracellular effector fused to luciferase (BRET donor), a plasma membrane effector fused to GFP (BRET acceptor). After transfection, cells are cultured for 48 h at 37° C./5% CO2.
Receptor activity is detected by changes in BRET signal.
On the day of the assay, cells are detached using trypsin 0.05%, resuspended in assay buffer (1.8 mM CaCl2, 1 mM MgCl2, 2.7 mM KCl, 137 mM NaCl, 0.4 mM NaH2PO4, 5.5 mM D-Glucose, 11.9 mM NaHCO3, 25 mM Hepes) and seeded in 384 well plate at a density of 20,000 cells per well. Then, plates are equilibrated 3.5 hours at 37° C. before adding compounds.
Compounds and luciferase substrate are added to the cells using an automated device (Freedom Evo®, Tecan) and BRET readings are collected on EnVision (PerkinElmer) with specific filters (410 nm BW 80 nm, 515 nm BW 30 nm).
Agonist and antagonist activities of compounds are consecutively evaluated on the same cell plate. Agonist activity is first measured after 10 minutes incubation with compound alone on the cells. Then, cells are stimulated by an EC80 RFRP-3 concentration and luminescence is recorded for additional 10 minutes. EC80 RFRP-3 concentration is the concentration giving 80% of the maximal RFRP-3 response. Agonist or antagonist activities are evaluated in comparison to basal signals evoked by assay buffer or EC80 RFRP-3 alone, respectively.
For IC50 determination, a dose-response test is performed using 20 concentrations (ranging over 6 logs) of each compound. Dose-response curves are fitted using the sigmoidal dose-response (variable slope) analysis in GraphPad Prism software (GraphPad Software) and IC50 of antagonist activity is calculated. Dose-response experiments are performed in duplicate, in two independent experiments.

| SMILES | melting point [°C] | IC50 [1] [nM] |
| --- | --- | --- |
| Cc1cc(N)ncc1-c1cccc(Cl)c1Cl [Compound 22, 5-(2,3-Dichloro-phenyl)-4-methyl-pyridin-2-ylamine] | 94 to 97 | > 1000 |
| COc1ccccc1-c1ccc(N)nc1C [Compound 26, 5-(2-Methoxy-phenyl)-6-methyl-pyridin-2-ylamine] | 132 to 140 | > 1000 |
| COc1ccccc1-c1c(C)cc(N)nc1C [Compound 27, 5-(2-Methoxy-phenyl)-4,6-dimethyl-pyridin-2-ylamine] | 178 to 181 | > 1000 |
| COc1ccc(-c2ccc(N)nc2N)c(C)c1 [Compound 40, 3-(4-Methoxy-2-methyl-phenyl)-pyridine-2,6-diamine] | 150 to 158 | > 1000 |
| Nc1ccc(-c2ccc(Cl)cc2F)c(N)n1 [Compound 41, 3-(4-Chloro-2-fluoro-phenyl)-pyridine-2,6-diamine] | 134 to 139 | > 1000 |
| Cc1ccc(-c2ccc(N)nc2N)c(OC(C)C)c1 [Compound 46, 3-(2-Isopropoxy-4-methyl-phenyl)-pyridine-2,6-diamine] | 75 to 80 | > 1000 |
| CC(C)Oc1ccc(C(F)(F)F)cc1-c1ccc(N)nc1N [Compound 52, 3-(2-Isopropoxy-5-trifluoromethyl-phenyl)-pyridine-2,6-diamine] | 100 to 103 | > 1000 |
| Cc1cc(Cl)ccc1-c1ccc(N)nc1N [Compound 54, 3-(4-Chloro-2-methyl-phenyl)-pyridine-2,6-diamine] | 80 to 85 | > 1000 |
| Cc1cc(C(F)(F)F)ccc1-c1ccc(N)nc1N [Compound 57, 3-(2-Methyl-4-trifluoromethyl-phenyl)-pyridine-2,6-diamine] | 60 to 65 | > 1000 |
| CS(=O)(=O)c1ccccc1-c1ccc(N)nc1N.Cl [Compound 63, 3-(2-methylsulfonylphenyl)pyridine-2,6-diamine] | 55 to 65 | > 1000 |
| CCc1nc(N)ccc1-c1ccccc1OC1CCCC1.Cl [Compound 76, 5-[2-(cyclopentoxy)phenyl]-6-ethyl-pyridin-2-amine] | 80 to 93 | < 100 |
| Cc1ncccc1-c1ccc(N)nc1N [Compound 84, 3-(2-methyl-3-pyridyl)pyridine-2,6-diamine] | 192 to 198 | > 1000 |
| Cc1nc(F)ccc1-c1ccc(N)nc1N [Compound 85, 3-(6-fluoro-2-methyl-3-pyridyl)pyridine-2,6-diamine] | 186 to 192 | > 1000 |
| Nc1ccc(-c2ccc(F)nc2)c(N)n1 [Compound 86, 3-(6-fluoro-3-pyridyl)pyridine-2,6-diamine] | 170 to 178 | > 1000 |
| COc1ncccc1-c1ccc(N)nc1N [Compound 89, 3-(2-methoxy-3-pyridyl)pyridine-2,6-diamine] | 174 to 176 | > 1000 |

Further lines, results first:

| melting point [°C] | IC50 [1] [nM] | SMILES |
| --- | --- | --- |
| 180 to 190 | 100 to 500 | CCc1nc(N)ccc1-c1ccccc1C1CC1.Cl [Compound 30, 5-(2-cyclopropylphenyl)-6-ethyl-pyridin-2-amine] |
| 60 to 80 | < 100 | CCc1nc(N)ccc1-c1ccccc1OC1CC1.Cl [Compound 31, 5-[2-(cyclopropoxy)phenyl]-6-ethyl-pyridin-2-amine] |
| 150 to 155 | 500 to 1000 | Nc1ccc(-c2ccc(F)cc2Cl)c(N)n1 [Compound 45, 3-(2-Chloro-4-fluoro-phenyl)-pyridine-2,6-diamine] |
| 78 to 81 | 500 to 1000 | Cc1ccc(OC(C)C)c(-c2ccc(N)nc2N)c1 [Compound 49, 3-(2-Isopropoxy-5-methyl-phenyl)-pyridine-2,6-diamine] |
| 93 to 97 | 500 to 1000 | CC(C)Oc1ccc(F)cc1-c1ccc(N)nc1N [Compound 50, 3-(5-Fluoro-2-isopropoxy-phenyl)-pyridine-2,6-diamine] |
| 104 to 108 | 100 to 500 | Cc1cccc(C)c1-c1ccc(N)nc1N [Compound 51, 3-(2,6-Dimethyl-phenyl)-pyridine-2,6-diamine] |
| 59 to 63 | 100 to 500 | CC(C)Oc1cc(F)ccc1-c1ccc(N)nc1N [Compound 53, 3-(4-Fluoro-2-isopropoxy-phenyl)-pyridine-2,6-diamine] |
| 95 to 97 | 100 to 500 | Cc1ccc(Cl)cc1-c1ccc(N)nc1N [Compound 56, 3-(5-Chloro-2-methyl-phenyl)-pyridine-2,6-diamine] |
| 109 to 114 | 100 to 500 | Cc1cccc(-c2ccc(N)nc2N)c1Cl [Compound 58, 3-(2-chloro-3-methyl-phenyl)-pyridine-2,6-diamine] |
| 73 to 78 | 100 to 500 | CSc1ccccc1-c1ccc(N)nc1N.Cl [Compound 59, 3-(2-Methylsulfanyl-phenyl)-pyridine-2,6-diamine] |
| 50 to 60 | < 100 | Cl.Nc1ccc(-c2ccccc2OCc2ccccc2)c(N)n1 [Compound 64, 3-(2-benzyloxyphenyl)pyridine-2,6-diamine] |
| 63 to 68 | < 100 | Cl.Nc1ccc(-c2ccccc2OCC2CC2)c(N)n1 [Compound 65, 3-[2-(cyclopropylmethoxy)phenyl]pyridine-2,6-diamine] |
| 90 to 120 | 100 to 500 | CCc1nc(N)ccc1-c1cccc2ccccc12.Cl [Compound 67, 6-ethyl-5-(1-naphthyl)pyridin-2-amine] |
| 152 to 158 | < 100 | Nc1ccc(-c2cccc3ccccc23)c(N)n1 [Compound 68, 3-(1-naphthyl)pyridine-2,6-diamine] |
| 63 to 67 | 100 to 500 | COc1ccc2ccccc2c1-c1ccc(N)nc1N [Compound 69, 3-(2-methoxy-1-naphthyl)pyridine-2,6-diamine] |
| 40 to 43 | 500 to 1000 | CC(C)Oc1ccc2ccccc2c1-c1ccc(N)nc1N [Compound 70, 3-(2-isopropoxy-1-naphthyl)pyridine-2,6-diamine] |
| 127 to 132 | 100 to 500 | Cc1ccc(-c2ccc(N)nc2N)c2ccccc12.Cl [Compound 71, 3-(4-methyl-1-naphthyl)pyridine-2,6-diamine] |
| 119 to 126 | < 100 | Cl.Nc1ccc(-c2ccc(F)c3ccccc23)c(N)n1 [Compound 72, 3-(4-fluoro-1-naphthyl)pyridine-2,6-diamine] |
| 135 to 140 | < 100 | Cl.Nc1ccc(-c2ccc(Cl)c3ccccc23)c(N)n1 [Compound 73, 3-(4-chloro-1-naphthyl)pyridine-2,6-diamine] |
| 160 to 166 | 500 to 1000 | Cl.Nc1ccc(-c2ccc(O)c3ccccc23)c(N)n1 [Compound 74, 4-(2,6-diamino-3-pyridyl)naphthalen-1-ol] |
| > 250 | 100 to 500 | Cl.N#Cc1ccccc1-c1ccc(N)nc1N [Compound 96, 2-(2,6-diamino-3-pyridyl)benzonitrile] |
